From the NIST ThermoML archive (doi:10.1016/j.fluid.2017.09.023)

Conditions: Crystal, Transpiration method

CC(=O)Nc1ccccc1 [N-phenylethanamide]
Conditions	vapor or sublimation pressure [kPa]
316.3 K	9e-05
320.3 K	0.00015
322.3 K	0.00018
323.2 K	0.00021
325.3 K	0.00025
327 K	0.0003
328.1 K	0.00035
328.2 K	0.00033
333.3 K	0.0006
334.3 K	0.00064
337.1 K	0.00088
339.4 K	0.00114
340.3 K	0.00119
342.4 K	0.00159
345.5 K	0.00205
346.1 K	0.00214
347.2 K	0.0024
349.4 K	0.00299
351.2 K	0.00356
352.5 K	0.00422
355.5 K	0.00532
356.4 K	0.00601
357.4 K	0.00636
359.2 K	0.00759
360.2 K	0.00852
362.2 K	0.01028
364.3 K	0.01261
365.3 K	0.01406
366.7 K	0.01576
368.4 K	0.01777
369.2 K	0.01911
372.2 K	0.02411
